The values that follow come from PMC4897788, “Design, biological evaluation and 3D QSAR studies of novel dioxin-containing pyrazoline derivatives with thiourea skeleton as selective HER-2 inhibitors” (Scientific Reports, 2016).

Molecules are shown by their SMILES.

The target in one series is HER-2 (Homo sapiens, UniProt P04626). Nature of the series: HER-2 autophosphorylation kinase assay (DELFIA/time-resolved fluorometry). The note with it: for SI EGFR/HER-2: selectivity index, IC50 EGFR/IC50 HER-2.
In a further series the target is EGFR (Homo sapiens, UniProt P00533). In words: EGFR autophosphorylation kinase assay (DELFIA/time-resolved fluorometry).
The test system of series [1] is MCF-7 human breast cancer cell line. In words: Anti-proliferation assay (MTT), MCF-7. Format: cell-based. The note with it: MCF7, 24 h. Here is the method:
(§1) MCF-7 human breast cancer cells was cultured in DMEM/10% fetal bovine serum, in 5% CO2 water saturated atmosphere at 37 °C. MDA-MB-453 human breast cancer cells was cultured in L-15 medium in 100% air at 37 °C. Cell suspensions (10000/mL) were prepared and 100 μL/well dispensed into 96-well plates (Costar) giving 1000 cells/well. The plates were returned to the incubator for 24 h to allow the cells to reattach. These compounds were initially prepared at 20 mM in DMSO. Aliquots (200 μL) were diluted into 20 mL culture medium giving 200 μM, and 10 serial dilutions of 3× prepared. Aliquots (100 μL) of each dilution were added to the wells, giving doses ranging from 100 μM to 0.005 μM. After a further incubated at 37 °C for 24 h in a humidified atmosphere with 5% CO2, the cell viability was assessed by the conventional 3-(4,5-dimethylthiazol-2-yl)-2,5-diphenyltetrazolium bromide (MTT) reduction assay and carried out strictly according to the manufacturer instructions (Sigma). The absorbance at 590 nm was recorded using LX300 Epson Diagnostic micro-plate reader. Then GI50 was calculated using SPSS 13.0 software.

Series [2] has as its system MDA-MB-453 human breast cancer cell line. Nature of the series: Anti-proliferation assay (MTT), MDA-MB-453. In kind it is cell-based. The note with it: 24 h. Here is the method:
as §1

Chain of HER-2 (P04626 676-1245): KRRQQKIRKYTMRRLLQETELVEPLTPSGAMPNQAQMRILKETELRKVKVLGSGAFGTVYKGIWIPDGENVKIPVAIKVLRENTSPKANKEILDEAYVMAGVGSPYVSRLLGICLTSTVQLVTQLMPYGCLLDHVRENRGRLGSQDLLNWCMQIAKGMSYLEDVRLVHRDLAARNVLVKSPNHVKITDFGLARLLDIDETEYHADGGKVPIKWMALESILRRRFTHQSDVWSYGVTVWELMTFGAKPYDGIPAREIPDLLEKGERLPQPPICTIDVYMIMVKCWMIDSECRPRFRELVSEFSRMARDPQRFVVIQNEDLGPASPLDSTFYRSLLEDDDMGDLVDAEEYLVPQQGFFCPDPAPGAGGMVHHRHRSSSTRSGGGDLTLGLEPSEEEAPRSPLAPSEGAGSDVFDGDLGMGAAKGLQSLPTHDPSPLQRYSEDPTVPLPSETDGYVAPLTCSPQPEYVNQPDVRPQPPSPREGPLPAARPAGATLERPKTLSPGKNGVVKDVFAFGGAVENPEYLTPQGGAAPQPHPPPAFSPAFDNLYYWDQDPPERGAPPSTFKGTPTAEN
Chain of EGFR (P00533 669-1210): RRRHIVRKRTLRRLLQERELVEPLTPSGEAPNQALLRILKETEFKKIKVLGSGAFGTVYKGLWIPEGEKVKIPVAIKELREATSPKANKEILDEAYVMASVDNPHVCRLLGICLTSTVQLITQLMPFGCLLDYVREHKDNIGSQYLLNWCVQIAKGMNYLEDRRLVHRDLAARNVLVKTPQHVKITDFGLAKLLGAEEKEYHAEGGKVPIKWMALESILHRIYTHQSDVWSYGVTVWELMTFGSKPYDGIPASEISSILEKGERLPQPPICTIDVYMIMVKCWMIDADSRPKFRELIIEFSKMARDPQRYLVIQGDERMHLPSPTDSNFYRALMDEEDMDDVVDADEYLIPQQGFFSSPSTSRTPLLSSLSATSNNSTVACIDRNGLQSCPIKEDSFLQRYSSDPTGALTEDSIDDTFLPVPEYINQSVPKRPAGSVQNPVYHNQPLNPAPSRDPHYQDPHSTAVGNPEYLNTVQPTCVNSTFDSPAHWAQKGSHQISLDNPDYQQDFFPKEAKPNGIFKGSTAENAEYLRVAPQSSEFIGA
Method for EGFR: (§2) A sequence that encodes (His)6 was located at the 5′ upstream to the HER-2 and EGFR sequences. Sf-9 cells were infected for 3 days for protein expression. Sf-9 cell pellets were solubilized at 0 °C in a buffer at pH 7.4 containing 50 mM HEPES, 10 mM NaCl, 1% Triton, 10 μM ammonium molybdate, 100 μM sodium vanadate, 10 μg/mL aprotinin, 10 μg/mL leupeptin, 10 μg/mL pepstatin, and 16 μg/mL benzamidine, HCl for 20 min followed by 20 min centrifugation. Crude extract supernatant was passed through an equilibrated Ni–NTA superflow packed column and washed with 10 mM and then 100 mM imidazole to remove nonspecifically bound material. Histidine-tagged proteins were eluted with 250 and 500 mM imidazole and dialyzed against 50 mM NaCl, 20 mM HEPES, 10% glycerol and 1 μg/mL each of aprotinin, leupeptin, and pepstatin for 2 h. The entire purification procedure was performed at 4 °C or on ice.
(§3) Both EGFR and HER-2 kinase assays were set up to assess the level of autophosphorylation based on DELFIA/Time-Resolved Fluorometry. […] Then, 10 μL of 5× buffer (containing 20 mM HEPES, 2 mM MnCl2, 100 μM Na3VO4, and 1 mM DTT) and 20 μL of 0.1 mM ATP-50 mM MgCl2 was added for 1 h. Positive and negative controls were included in each plate by incubation of enzyme with or without ATP-MgCl2. At the end of incubation, liquid was aspirated and plates were washed three times with wash buffer. A 75 μL (400 ng) sample of europium-labeled anti-phosphotyrosine antibody was added to each well for another 1 h of incubation. […] The IC50 was obtained from curves of percentage inhibition with eight concentrations of compound. As the contaminants in the enzyme preparation are fairly low, the majority of the signal detected by the anti-phosphotyrosine antibody is from EGFR or HER-2. The experiment was performed for three independent times and in triplicate each time.
Method for HER-2: as §2, §3

For `NC(=S)N1N=C(c2ccc3c(c2)OCCO3)CC1c1ccccc1` (stereo not shown) [Compound C1, 3-(2,3-dihydrobenzo[b][1,4]dioxin-6-yl)-5-phenyl-4,5-dihydro-1H-pyrazole-1-carbothioamide], the melting point – broadly, the temperature of the solid-liquid transition – is 166 to 168 °C. For the same compound, on HER-2, the IC50 (commonly the concentration that gives 50% inhibition) came out at 16 ± 1.45 µM and the “SI EGFR/HER-2” value amounted to 1.36. In addition, the IC50 at EGFR is 21.9 ± 2.03 µM. For the same compound, the 50% growth inhibitory concentration (GI50) (usually the concentration that inhibits growth by half) in series [1] was 10 ± 0.91 µM. The compound further registered a concentration for 50% growth inhibition (GI50) in series [2] of 63.4 ± 6.12 µM.

Consider `NC(=S)N1N=C(c2ccc3c(c2)OCCO3)CC1c1cccc2ccccc12` (stereo not shown) [Compound C2, 3-(2,3-dihydrobenzo[b][1,4]dioxin-6-yl)-5-(naphthalen-1-yl)-4,5-dihydro-1H-pyrazole-1-carbothioamide], for which the melting point lay in the range of 214 to 216 °C. Further, at HER-2, the half-inhibitory concentration (IC50) turned out to be 0.56 ± 0.05 µM and the “SI EGFR/HER-2” value is 5.25. This compound showed a half-inhibitory concentration (IC50) on EGFR of 2.94 ± 0.26 µM. Moreover, the GI50 in series [1] was 4.68 ± 0.42 µM. The GI50 in series [2] came out at 2.2 ± 0.18 µM.

For the compound `NC(=S)N1N=C(c2ccc3c(c2)OCCO3)CC1c1ccc2ccccc2c1` (stereo not shown) [Compound C3, 3-(2,3-dihydrobenzo[b][1,4]dioxin-6-yl)-5-(naphthalen-2-yl)-4,5-dihydro-1H-pyrazole-1-carbothioamide], the melting point lay within 204 to 206 °C. In addition, on HER-2, the half-maximal inhibitory concentration (IC50) was 7.18 ± 0.65 µM and the “SI EGFR/HER-2” value is listed as 0.62. Besides, the IC50 on EGFR worked out at 4.42 ± 0.35 µM. The same compound registered a 50% growth inhibitory concentration (GI50) in series [1] of 5.3 ± 0.49 µM. Further, the 50% growth inhibitory concentration (GI50) in series [2] came to 19.9 ± 1.84 µM.

`NC(=S)N1N=C(c2ccc3c(c2)OCCO3)CC1c1ccccc1F` (stereo not shown) [Compound C4, 3-(2,3-dihydrobenzo[b][1,4]dioxin-6-yl)-5-(2-fluorophenyl)-4,5-dihydro-1H-pyrazole-1-carbothioamide] registered a melting point of 169 to 171 °C. Moreover, on HER-2, 125 ± 10.2 µM corresponded to half-maximal inhibition (IC50) and the “SI EGFR/HER-2” value was 0.47. Also, it took 59.3 ± 5.58 µM to reach half-maximal inhibition at EGFR (IC50). Growth in series [1] was halved (GI50) at 185 ± 17.8 µM. For the same compound, the GI50 in series [2] was > 300 µM.

`COc1cccc(C2CC(c3ccc4c(c3)OCCO4)=NN2C(N)=S)c1` (stereo not shown) [Compound C5, 3-(2,3-dihydrobenzo[b][1,4]dioxin-6-yl)-5-(3-methoxyphenyl)-4,5-dihydro-1H-pyrazole-1-carbothioamide]: the melting point lay in the range of 168 to 170 °C. On HER-2, the concentration for half-maximal inhibition (IC50) stood at 86.5 ± 8.05 µM and the “SI EGFR/HER-2” value turned out to be 0.50. Besides, on EGFR, the IC50 came to 43.6 ± 4.1 µM. In series [1], this compound registered a 50% growth inhibitory concentration (GI50) of 57.2 ± 5.36 µM. The same compound yielded a concentration for 50% growth inhibition (GI50) in series [2] of 135 ± 11.1 µM.

The compound `NC(=S)N1N=C(c2ccc3c(c2)OCCO3)CC1c1cccc(OCc2ccccc2)c1` (stereo not shown) [Compound C6, 5-(3-(benzyloxy)phenyl)-3-(2,3-dihydrobenzo[b][1,4]dioxin-6-yl)-4,5-dihydro-1H-pyrazole-1-carbothioamide] yielded a melting point of 178 to 180 °C. Further, on HER-2, the IC50 worked out at 0.06 ± 0.004 µM and the “SI EGFR/HER-2” value is listed as 74.8. For the same compound, the IC50 against EGFR was 4.49 ± 0.41 µM. In addition, the GI50 in series [1] turned out to be 4.95 ± 0.43 µM. Also, the concentration for 50% growth inhibition (GI50) in series [2] was found to be 0.2 ± 0.02 µM.

Turning to `NC(=S)N1N=C(c2ccc3c(c2)OCCO3)CC1c1cccc(Cl)c1` (stereo not shown) [Compound C7, 5-(3-chlorophenyl)-3-(2,3-dihydrobenzo[b][1,4]dioxin-6-yl)-4,5-dihydro-1H-pyrazole-1-carbothioamide], the melting point lay in the range of 246 to 248 °C. Further, on HER-2, 62.8 ± 5.67 µM corresponded to half-maximal inhibition (IC50) and the “SI EGFR/HER-2” value is 0.15. At EGFR, this compound yielded an IC50 of 9.45 ± 0.88 µM. Besides, the concentration for 50% growth inhibition (GI50) in series [1] is 16.8 ± 0.98 µM. Also, the GI50 in series [2] is > 300 µM.

For `NC(=S)N1N=C(c2ccc3c(c2)OCCO3)CC1c1cccc(Br)c1` (stereo not shown) [Compound C8, 5-(3-bromophenyl)-3-(2,3-dihydrobenzo[b][1,4]dioxin-6-yl)-4,5-dihydro-1H-pyrazole-1-carbothioamide], the melting point was 247 to 249 °C. For the same compound, at HER-2, the half-inhibitory concentration (IC50) stood at 0.45 ± 0.04 µM and the “SI EGFR/HER-2” value was 19.2. Also, on EGFR, half-maximal inhibition (IC50) required 8.63 ± 0.78 µM. Also, it took 5.64 ± 0.52 µM to inhibit growth in series [1] by half (GI50). The compound also registered a GI50 in series [2] of 1.69 ± 0.15 µM.

The compound `NC(=S)N1N=C(c2ccc3c(c2)OCCO3)CC1c1ccc(F)cc1` (stereo not shown) [Compound C11, 3-(2,3-dihydrobenzo[b][1,4]dioxin-6-yl)-5-(4-fluorophenyl)-4,5-dihydro-1H-pyrazole-1-carbothioamide] showed a melting point of 235 to 237 °C. Moreover, at HER-2, the half-inhibitory concentration (IC50) was found to be 1.9 ± 0.15 µM and the “SI EGFR/HER-2” value stood at 25.2. Further, the IC50 against EGFR worked out at 47.8 ± 4.54 µM. Moreover, in series [1], the GI50 is 28.5 ± 2.8 µM. In series [2], this compound returned a concentration for 50% growth inhibition (GI50) of 11.9 ± 1.05 µM.

`NC(=S)N1N=C(c2ccc3c(c2)OCCO3)CC1c1ccc(Cl)cc1` (stereo not shown) [Compound C12, 5-(4-chlorophenyl)-3-(2,3-dihydrobenzo[b][1,4]dioxin-6-yl)-4,5-dihydro-1H-pyrazole-1-carbothioamide]: the melting point fell in the range of 231 to 233 °C. On HER-2, the IC50 was 0.84 ± 0.07 µM and the “SI EGFR/HER-2” value is given as 64.1. Moreover, at EGFR, the IC50 was found to be 53.8 ± 5.12 µM. The GI50 in series [1] was found to be 33.9 ± 3.21 µM. In series [2], this compound had a GI50 of 5.31 ± 0.48 µM.

With `NC(=S)N1N=C(c2ccc3c(c2)OCCO3)CC1c1ccc(I)cc1` (stereo not shown) [Compound C14, 3-(2,3-dihydrobenzo[b][1,4]dioxin-6-yl)-5-(4-iodophenyl)-4,5-dihydro-1H-pyrazole-1-carbothioamide], the melting point lay in the range of 259 to 261 °C. Also, on HER-2, the IC50 came out at 1.23 ± 0.1 µM and the “SI EGFR/HER-2” value worked out at 68.5. The same compound showed an IC50 against EGFR of 84.3 ± 7.81 µM. This compound also had a GI50 in series [1] of 135 ± 11.6 µM. The compound further displayed a 50% growth inhibitory concentration (GI50) in series [2] of 9.12 ± 0.89 µM.

Regarding `NC(=S)N1N=C(c2ccc3c(c2)OCCO3)CC1c1ccc(OCc2ccccc2)cc1` (stereo not shown) [Compound C16, 5-(4-(benzyloxy)phenyl)-3-(2,3-dihydrobenzo[b][1,4]dioxin-6-yl)-4,5-dihydro-1H-pyrazole-1-carbothioamide], the melting point was 197 to 199 °C. Moreover, on HER-2, inhibition was half-maximal at 0.13 ± 0.01 µM (IC50) and the “SI EGFR/HER-2” value was 78.5. Moreover, at EGFR, the IC50 came to 10.2 ± 0.94 µM. For the same compound, it took 5.99 ± 0.55 µM to inhibit growth in series [1] by half (GI50). Further, in series [2], the GI50 was found to be 0.36 ± 0.03 µM.

For `NC(=S)N1N=C(c2ccc3c(c2)OCCO3)CC1c1c(F)cccc1F` (stereo not shown) [Compound C18, 5-(2,6-difluorophenyl)-3-(2,3-dihydrobenzo[b][1,4]dioxin-6-yl)-4,5-dihydro-1H-pyrazole-1-carbothioamide], the melting point is 208 to 209 °C. At HER-2, the 50% inhibitory concentration (IC50) is 0.96 ± 0.08 µM and the “SI EGFR/HER-2” value is recorded as 35.4. Further, the midpoint of inhibition against EGFR, the IC50, lay at 34 ± 3.08 µM. For the same compound, the concentration for 50% growth inhibition (GI50) in series [1] was 15.2 ± 1.4 µM. For the same compound, the concentration for 50% growth inhibition (GI50) in series [2] is 8.68 ± 0.84 µM.

The compound `NC(=S)N1N=C(c2ccc3c(c2)OCCO3)CC1c1ccco1` (stereo not shown) [Compound C19, 3-(2,3-dihydrobenzo[b][1,4]dioxin-6-yl)-5-(furan-2-yl)-4,5-dihydro-1H-pyrazole-1-carbothioamide] returned a melting point of 174 to 175 °C. On HER-2, the half-maximal inhibitory concentration (IC50) is 12 ± 1.02 µM and the “SI EGFR/HER-2” value was found to be 16.3. The compound further had an IC50 on EGFR of 197 ± 18.5 µM. Besides, the GI50 in series [1] is > 300 µM. In addition, halving of growth in series [2] (GI50) required 33.4 ± 2.95 µM.

In the case of `C#Cc1cccc(Nc2ncnc3cc(OCCOC)c(OCCOC)cc23)c1` [Erlotinib, reference compound], the GI50 worked out at 0.08 ± 0.006 µM in series [1] and 1.56 ± 0.14 µM in series [2].

Take `CS(=O)(=O)CCNCc1ccc(-c2ccc3ncnc(Nc4ccc(OCc5cccc(F)c5)c(Cl)c4)c3c2)o1` [Lapatinib, reference compound]: the GI50 in series [1] was determined as 3.12 ± 0.24 µM; in series [2], 0.03 ± 0.002 µM.
